Data as given in paper PMC9739180, “Discovery of a Flavonoid FM04 as a Potent Inhibitor to Reverse P-Glycoprotein-Mediated Drug Resistance in Xenografts and Improve Oral Bioavailability of Paclitaxel” (International Journal of Molecular Sciences, 2022).
Where two headings read alike, the source gives them in different places.

Assays:
CYP2C8 = molecular target: T1, CYP2C8 (Homo sapiens, UniProt P10632); assay: PTX metabolism in human liver microsomes: 6α-OHP formation; format: in vitro ADME; conditions: HLM
T1 construct: tissue Research Institute for Liver Diseases (Shanghai); host or cells: 50-donor pooled human liver microsomes
T1 sequence (P10632 1-490): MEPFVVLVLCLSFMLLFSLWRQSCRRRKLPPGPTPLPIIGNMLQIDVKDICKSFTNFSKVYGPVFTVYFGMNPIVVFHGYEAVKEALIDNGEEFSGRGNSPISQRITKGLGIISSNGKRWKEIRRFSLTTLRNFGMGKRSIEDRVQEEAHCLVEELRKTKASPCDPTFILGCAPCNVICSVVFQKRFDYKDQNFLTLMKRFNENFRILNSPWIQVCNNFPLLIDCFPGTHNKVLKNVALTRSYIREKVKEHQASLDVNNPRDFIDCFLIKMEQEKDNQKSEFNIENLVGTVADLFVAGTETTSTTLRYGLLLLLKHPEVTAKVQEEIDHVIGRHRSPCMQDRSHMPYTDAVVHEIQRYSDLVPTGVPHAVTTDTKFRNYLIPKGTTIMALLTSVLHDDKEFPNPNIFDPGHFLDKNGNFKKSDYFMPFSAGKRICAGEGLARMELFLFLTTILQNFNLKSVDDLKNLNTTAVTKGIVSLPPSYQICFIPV
Experimental: Figure 7 Mechanistic study of FM04 to increase the oral PTX absorption. (A) transepithelial permeability of PTX in Caco-2 transwell assay. When confluent monolayer of Caco2 cells was formed on the transwell, the permeability of PTX (10 μM) was studied with or without FM04 (10 μM). For apical to basolateral transport (A to B), compound was added at the apical side (donor) and samples of the medium collected at the basal side (receiver) at 0, 20, 40, 60, 80, 100 and 120 min and vice versa for basal to apical transport (B to A). The PTX level was determined using UPLC-MS/MS. The relative % of PTX was presented as mean ± standard error of mean. N = 2–3 independent experiments. Impact of FM04 on PTX metabolism. […] After incubation, the levels of PTX, metabolites 6α-hydroxpaclitaxel (6α-OHP) and p3′-hydroxpaclitaxel (p3-OHP) were determined by HPLC-MS/MS. (B) changes in PTX. (C) changes in 6α-OHP. (D) changes in p3-OHP. […]
Drug solutions of PTX and FM04 were prepared in methanol. […] PTX and PTX metabolites were immediately analyzed by UPLC-MS/MS on the same day.
[^13C6]-paclitaxel (CAS: 379688-61-6) was the internal standard (IS) and purchased from Alsachim. Fifteen microliters of 10 μg/mL internal standard (IS) was added to all samples and calibration standards for quantification. […] PTX and both metabolites were semi-quantified base on the peak area ratio of the analyte/internal standard.

[1] = set-up: method as in PMID 23090875; conditions: oral PTX 10 mg/kg, cited from earlier work

| SMILES | decrease of the level of 6α-OHP (CYP2C8; FM04 10 μM) [%] | decrease of the level of 6α-OHP (CYP2C8; FM04 20 μM) [%] | fold increase of oral plasma AUC of PTX relative to wild type mice ([1]; Cyp3a KO (Cyp3a−/−) mice) [fold] | fold increase of oral plasma AUC of PTX relative to wild type mice ([1]; P-gp KO (Mdr1a/b−/−) mice) [fold] | fold increase of oral plasma AUC of PTX relative to wild type mice ([1]; combined P-gp and Cyp3a KO mice) [fold] |
| --- | --- | --- | --- | --- | --- |
| O=c1cc(-c2ccc(OCCOCCNCc3ccccc3)cc2)oc2ccccc12 [FM04, 2-(4-(2-(2-(benzylamino)ethoxy)ethoxy)phenyl)-4H-chromen-4-one] | 44 | 48 |  |  |  |
| CC(=O)O[C@H]1C(=O)[C@@]2(C)[C@H]([C@H](OC(=O)c3ccccc3)[C@]3(O)C[C@H](OC(=O)[C@H](O)[C@@H](NC(=O)c4ccccc4)c4ccccc4)C(C)=C1C3(C)C)[C@]1(OC(C)=O)CO[C@@H]1C[C@@H]2O [PTX, paclitaxel] |  |  | 1.5 | 12.4 | 27.6 |
